Source: US20240238268A1, “TREATMENTS AND METHODS FOR TREATING ALZHEIMER'S DISEASE” (Board of Supervisors of Louisiana State University and …, priority 2021, published 2024)

Key:
Format in all cases: in vivo, mouse
[1] = test system: amyloid precursor protein (APP); test: Amyloid precursor protein level in brain, capillary-phoresis; settings: treated 3xTg-AD mice; controls = 100%; not significantly changed vs untreated 3xTg
Source text: (§1) Capillary-phoresis immunoassay via ProteinSimple®: Quantification of all protein targets was achieved using Simple Western analysis in a Jess™ apparatus per the manufacturer's protocol (ProteinSimple, Bio-techne, Minneapolis, MN). Protein was extracted from dissected tissue in an extraction buffer consisting of T-PER® Tissue Protein Extraction Reagent (Cat. No. 78510, Thermo Fischer Scientific, Waltham, MA) and Halt™ Protease Inhibitor Cocktail (Cat. No. 87785, Thermo Fischer Scientific, Waltham, MA). Following homogenization and centrifugation (10,000×g, 5 min, 4° C.), protein concentration was determined in tissue protein supernatant samples using DC Protein Assay (Cat. No. 5000112, Bio-Rad Laboratories, Hercules, California) according to manufacturer instructions. […] Antibody diluent (ProteinSimple, Bio-techne, Minneapolis, MN) was used for all antibody dilutions as follows: PRMT4 (1:50, RRID: AB_2068436), PRMT6 (1:100, Cell Signaling Technology cat. 14641), eNOS (1:200, RRID: AB_10850618), nNOS (1:100, RRID: AB_2152488), iNOS (1:100, RRID: AB_10000625), DDAH2 (1:50, RRID: AB_2640442) Antibodies were detected using HRP-conjugated secondary anti-rabbit, and -mouse. Relative protein levels were calculated by measuring the area under the peak of a chemiluminescent chromatogram and normalized to total capillary chemiluminescence for a given sample. […]

eNOS = eNOS protein level in brain, capillary-phoresis; settings: treated 3xTg-AD mice; control = 100%
Source text: as §1

aged 3xTg-AD female mice = test: T-maze spontaneous alternation; settings: 30 mg/kg, 7 days, IP
Protocol: FIGS. 20A and 20B are two graphs showing PRMT4 inhibitor (TP-064) or AAV knockdown of PRMT4 improved functional learning/memory in aged 3xTg-AD female mice. […] C57 but increased with administration of TP-064 (30 mg/kg, 7 days, IP). In FIG. 20B, in Novel Object Recognition, aged 3xTg-AD female mice had fewer number of entries in the novel zone v. C57. Treatment with TP-064 or brain-specific AAV knockdown of PRMT4 increased the number of entries. T-maze and novel object recognition test were utilized to analyze working/short-term and reference/long-term memory, respectively. * p<0.05 v. C57 via one-way ANOVA with Tukey's post-hoc analyses.

CNCCN1CCC(c2cc(CN(C)C(=O)c3cccc(Oc4ccccc4)c3)ccn2)CC1 [TP-064, N-Methyl-N-((2-(1-(2-(methylamino)ethyl)piperidin-4-yl)pyridin-4-yl)methyl)-3-phenoxybenzamide]
APP level in cortex [1]: 801%±36.3
APP level in hippocampus [1]: 1040%±31.1
eNOS level in cortical lysates (eNOS): 94.0%±25.6
eNOS level in hippocampal lysates (eNOS): 69.5%±2.71
T-maze spontaneous alternation ratio (aged 3xTg-AD female mice): increased
